Assay results reported in patent publication US9603820B2, “Ornithine aminotransferase inhibition with GABA analogues for treatment of hepatocellular carcinoma” (Northwestern University, priority 2014, dated 2017).
Entries after “also recorded” stand apart in the source; their conditions may differ. Where two headings read alike, the source gives them in different places.

Legend:
[1] = tested on: γ-aminobutyric acid aminotransferase (GABA-AT); settings: cited from earlier work
[2] = target: T1, OAT (Homo sapiens, UniProt P04181); settings: prior art, FIG. 1; cited from earlier work
T1 sequence (P04181 36-439 limits assumed): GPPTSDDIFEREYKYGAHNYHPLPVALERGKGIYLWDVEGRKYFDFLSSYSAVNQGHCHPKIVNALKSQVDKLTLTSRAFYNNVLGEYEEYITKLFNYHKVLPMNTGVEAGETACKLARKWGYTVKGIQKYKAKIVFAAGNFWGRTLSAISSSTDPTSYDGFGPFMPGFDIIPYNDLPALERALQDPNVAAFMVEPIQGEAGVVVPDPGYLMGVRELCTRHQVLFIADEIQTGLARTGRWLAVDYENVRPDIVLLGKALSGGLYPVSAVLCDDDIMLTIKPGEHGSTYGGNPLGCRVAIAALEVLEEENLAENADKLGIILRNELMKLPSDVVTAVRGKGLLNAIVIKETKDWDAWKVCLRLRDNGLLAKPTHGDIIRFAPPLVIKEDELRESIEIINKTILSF

[3] = tested on: CYP3A4/5; experiment: CYP inhibition in human liver microsomes; format: in vitro ADME; settings: 0.1 to 100 μM
[4] = tested on: CYP1A2; settings: concentrations up to 100 μM, 3 days
[5] = tested on: Cerep panel of 111 pharmacological targets; experiment: Cerep panel
[6] = in vivo
Protocol: Each dose cohort consisted of 8 subjects. […] Subjects were followed for safety for a 30-day period after receiving their single dose of study treatment.
Dose escalation can continue until completion of the 500 mg dose cohort.

[7] = tested on: Salmonella typhimurium (TA98, TA100, TA1535, and TA1537) and Escherichia coli (WP2uvrA); experiment: In vitro bacterial reverse mutation assay; settings: up to 5000 μg per plate, presence or absence of S9
[8] = tested on: three human GABA transporters; experiment: Binding to GABA transporters (summary statement)
[9] = 4-week oral (gavage) toxicology/toxicokinetic study in dogs
Protocol: Dogs received test article once daily for at least 4 weeks at a dose volume of 7 mL/kg followed by a 4-week recovery period.
Assessment of toxicity was based on mortality, clinical observations, body weights, body weight gain, food consumption, physical examinations, vital signs (heart rate, respiration, and body temperature), ophthalmology examinations, electrocardiogram examinations, clinical and anatomic pathology, and left eye evaluation.

[10] = tested on: aspartate aminotransferase; experiment: Inhibition of aspartate aminotransferase; format: biochemical; settings: even at 6 mM concentration
[11] = tested on: GABAA; experiment: Binding to GABAA
[12] = tested on: GABAC; experiment: Binding to GABAC
[13] = 4-week oral (gavage) toxicology/toxicokinetic study in rats
Protocol: Rats received test article once daily for at least 4 weeks at a dose volume of 10 mL/kg followed by a 4-week recovery period.

[14] = tested on: alanine aminotransferase; experiment: Inhibition of alanine aminotransferase; format: biochemical; settings: even at 6 mM concentration
[15] = tested on: human peripheral blood lymphocytes (HPBL); experiment: In vitro mammalian chromosome aberration test; format: cell-based; settings: 535, 1070, and 2140 μg/mL, absence and presence of S9
Protocol: CPP-115 was tested in the in vitro mammalian chromosome aberration test using human peripheral blood lymphocytes (HPBL) in both the absence and presence of an Aroclor-induced rat liver S9 metabolic activation system.

[16] = target: T2, ornithine aminotransferase (OAT) (Homo sapiens, UniProt P04181); experiment: Continuous coupled OAT assay (PYCR1/NADH), inhibition of OAT; format: biochemical; settings: FIG. 2
T2 sequence (P04181 36-439 limits assumed): T1 sequence (P04181 36-439 limits assumed)
Text: With these two assays in hand, the activity of a variety of compounds made previously as potential inhibitors of GABA-AT were investigated.

[17] = tested on: γ-aminobutyric acid aminotransferase (GABA-AT); experiment: Inhibition/inactivation of GABA-AT; format: biochemical
[18] = tested on: hepatocellular carcinoma (HCC); settings: HCC patients, cited from earlier work; for response rates: single agent
[19] = rat, in vivo
Protocol: At the conclusion of dosing, rats entered a wash-out period (5-7 days) after which electroretinograms (ERGs) for scotopic (rod), mesopic (standard combined), photopic (cone), and 10 Hz and 15 Hz3 flicker ERG responses were collected for both eyes from each rat.
Quantitative histological examinations of retinas of the rats from this study were also carried out. Cone receptors were stained with a cone arrestin antibody and counterstained with a red stain for visualization and counting. Retinal sections were also stained with H&E and the ONL nuclei counts and ONL thicknesses were determined.

[20] = tested on: Hep3B; experiment: HCC proliferation, 3H-thymidine assay; format: cell-based, human; settings: 48 h after exposure to 20 mM gabaculine
[21] = tested on: PLC/PRF/5; experiment: Alpha-fetoprotein (AFP) secretion in HCC cells; format: cell-based
[22] = tested on: PLC/PRF/5; experiment: HCC proliferation, 3H-thymidine assay; format: cell-based; settings: PLC/PRF/5, 48 h after exposure to 20 mM gabaculine
[23] = tested on: human hepatoma Hep3B cells; experiment: Effect of gabaculine on HCC growth in vivo; parameters: species or system Athymic Balb/C mice
Protocol: (§1) Alpha-fetoprotein (AFP) secretion was evaluated as a biomarker for HCC. […] Within seven days of a single dose to HCC-harboring mice, AFP serum levels decreased by 92% in comparison with a 9.7 fold increase in controls (FIG. 5C).
Athymic Balb/C mice were conditioned with sub-lethal radiation (400 cGy). At 24 h after irradiation, animals were injected subcutaneously at the right shoulder with 5×10^6 human hepatoma Hep3B cells. Blood samples were obtained weekly by retrobulbar puncture, and serum was separated and frozen at −20° C. until assayed. On day 45 the mice were divided into two groups (n=8 per treated and controls) and baseline serum AFP was measured. […] Mice in the control group were injected with saline. AFP serum levels, which correlate with tumor growth, were measured on day 52 using a standard Elisa test.

[24] = tested on: HepA1-6; experiment: HCC proliferation, 3H-thymidine assay; format: cell-based; settings: HepA1-6, 48 h after exposure to 20 mM gabaculine
[25] = tested on: HepA1-6; experiment: Alpha-fetoprotein (AFP) secretion in HCC cells; format: cell-based
Protocol: as §1

[26] = tested on: Hep3B cells; experiment: Alpha-fetoprotein (AFP) secretion in HCC cells; format: cell-based, human; settings: Hep3B cells

C#CC(N)CCC(=O)O (centres unmarked) [4-aminohex-5-ynoic acid]
inactivation/inhibition of GABA-AT (known compounds) ([1]; prior art, FIG. 1): inactivators of GABA-AT
inactivation/inhibition of OAT (known compounds) [2]: also inactivate OAT with equal potency

NC(CF)CC[C@H](N)C(=O)O (some centres unmarked) [5-Fluoromethylornithine]
inactivation/inhibition of OAT (known compounds) [2]: irreversible inhibitors of OAT

N[C@H]1C[C@@H](C(=O)O)CC1=C(F)F [CPP-115, (1S,3S)-3-amino-4-difluoromethylenyl-1-cyclopentanoic acid]
direct inhibition of CYP3A4/5 [3]: little or no evidence of direct inhibition
induction of CYP1A2 activity [4]: not an inducer
activity in the Cerep panel of 111 pharmacological targets [5]: not active
elimination half-life ([6]; human, po): 4 to 6 h
AUCs versus dose [6]: greater than proportional increase
cmax versus dose [6]: increased in a dose proportional manner
time to peak blood concentration ([6]; po): approximately 30 minutes
mutagenicity (reverse mutations) [7]: not mutagenic; also recorded: no mutations
binding to three human GABA transporters [8]: does not bind
Human Equivalent Dose [HED] of NOAEL ([9]; dogs): 1.24 mg/kg/day
no-observed-effect-level (NOEL) ([9]; females): 0.7 mg/kg/day
no-observed-effect-level (NOEL) ([9]; males): 2.3 mg/kg/day
inhibition of aspartate aminotransferase [10]: does not inhibit
binding to GABAA [11]: does not bind
binding to GABAC [12]: does not bind
increases in Cmax and AUC0-t with dose ([13]; 2, 6, 20 mg/kg/day oral): generally dose proportional
adverse microscopic finding ([13]; 6 or 20 mg/kg/day, dosing and recovery phases): retinal dysplasia
hepatic extraction and tissue distribution ([13]; after oral administration): may not be highly extracted by the liver and may highly distribute to the tissues
accumulation after multiple dosing ([13]; oral once daily, 4 weeks): No accumulation
Human Equivalent Dose [HED] of NOAEL ([13]; rats): 0.96 mg/kg/day
inhibition of alanine aminotransferase [14]: does not inhibit
chromosome aberrations [15]: not elastogenic; also recorded: no mutations or chromosomal aberrations

NC1CC(C(=O)O)CC1=C(Cl)Cl (centres unmarked) [Compound 18]
inhibition of / binding to OAT, in words [16]: very weak binder
binding to GABA-AT [17]: very weak binder

Cl.N[C@H]1C[C@@H](C(=O)O)C/C1=C\F [Compound 20, (E)-(1S,3S)-3-Amino-4-fluoromethylenyl-1-cyclopentanoic acid, hydrochloride salt]
time-dependent inhibition of GABA-AT [17]: potent time-dependent inhibitors of GABA-AT

Cl.N[C@H]1C[C@@H](C(=O)O)C/C1=C/F [Compound 22, (Z)-(1S,3S)-3-Amino-4-fluoromethylenyl-1-cyclopentanoic acid, hydrochloride salt]
time-dependent inhibition of GABA-AT [17]: potent time-dependent inhibitors of GABA-AT

NCCCC(=O)O [GABA, γ-aminobutyric acid]
inactivation/inhibition of OAT (known compounds) [2]: competitive inhibitor of OAT

NOCC[C@H](N)C(=O)O [L-canaline]
inactivation/inhibition of OAT (known compounds) [2]: irreversible inhibitors of OAT

CCCCCOC(=O)Nc1nc(=O)n([C@@H]2O[C@H](C)[C@@H](O)[C@H]2O)cc1F [capecitabine]
response rates in clinical trials [18]: low and short term

N.N.[Cl][Pt][Cl] [cisplatin]
response rates [18]: about 10%

COc1cccc2c1C(=O)c1c(O)c3c(c(O)c1C2=O)C[C@@](O)(C(=O)CO)C[C@@H]3O[C@H]1C[C@H](N)[C@H](O)[C@H](C)O1 [doxorubicin]
response rates [18]: about 10%

O=c1[nH]cc(F)c(=O)[nH]1 [fluorouracil]
response rates [18]: about 10%

Nc1ccn([C@@H]2O[C@H](CO)[C@@H](O)C2(F)F)c(=O)n1 [gemcitabine]
response rates in clinical trials [18]: low and short term

C=CC(N)CCC(=O)O (centres unmarked) [vigabatrin, Vigabatrin, reference compound]
cone receptor counts [19]: no statistically significant change
inactivation/inhibition of OAT (known compounds) [2]: does not inactivate OAT

Gabaculine
suppression of proliferation [20]: 46-51%
AFP suppression [21]: No significant differences
inactivation/inhibition of GABA-AT (known compounds) [1]: inactivators of GABA-AT
suppression of proliferation [22]: 46-51%
tumor growth in vivo ([23]; HCC-harboring mice): significantly suppressed tumor growth in vivo
decrease of AFP serum levels ([23]; within seven days of a single dose (500 microgram/kg i.p.)): 92%
suppression of proliferation [24]: 46-51%
AFP suppression [25]: No significant differences
decrease of AFP secretion [26]: 20%
